{"source": "patent US12649748B2", "about": "“Wee1 inhibitor and use thereof” (JIANGSU TASLY DIYI PHARMACEUTICAL CO., LTD., priority 2021, dated 2026)", "key": {"[1]": {"target": "T1, CYP2B6 (Homo sapiens, UniProt P20813)", "T1 sequence (P20813 1-491)": "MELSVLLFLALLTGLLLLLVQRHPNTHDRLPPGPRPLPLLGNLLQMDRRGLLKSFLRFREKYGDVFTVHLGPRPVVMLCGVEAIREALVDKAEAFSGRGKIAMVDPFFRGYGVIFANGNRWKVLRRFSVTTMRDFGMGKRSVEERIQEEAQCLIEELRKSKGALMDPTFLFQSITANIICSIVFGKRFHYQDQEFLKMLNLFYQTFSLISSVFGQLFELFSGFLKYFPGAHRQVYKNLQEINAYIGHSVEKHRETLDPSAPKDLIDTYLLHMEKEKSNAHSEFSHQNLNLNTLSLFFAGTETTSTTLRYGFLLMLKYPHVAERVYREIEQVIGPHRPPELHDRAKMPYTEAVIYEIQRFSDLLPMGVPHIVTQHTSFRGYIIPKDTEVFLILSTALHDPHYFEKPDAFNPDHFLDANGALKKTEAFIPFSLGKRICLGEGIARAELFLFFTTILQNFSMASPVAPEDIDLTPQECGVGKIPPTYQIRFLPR", "test": "Inhibition of cytochrome P450, 2B6", "assay_type": "in vitro ADME", "details": "CYP2B6 enzyme, pH 7.4, compound concentration 10 μM, read-out: CYP inhibition/% 2B6", "procedure": "Enzymatic experiments were performed to quantify the inhibition of CYP450 enzyme activity of each isoform of CYP450 by small molecule inhibitors through fluorescence generated by the oxidation of the substrate by cytochrome P450. […] The Solution B composition used for the experiment was: 40 U/mL G6PDH (Sigma-aldrich, Cat #G6378). The substrate mix was 0.05× Solution A, 0.01× Solution B, 50 mM Potassium Phosphate, 0.01 mM BOMCC/0.01 mM EOMCC/0.001 mM DBOMF. […] The data were analyzed and processed using GraphPad Prism 6 software to obtain IC50 values."}, "[2]": {"target": "T2, hERG potassium channel (Homo sapiens, UniProt Q12809)", "T2 construct": "expressed in transfected cells; host or cells: CHO (Chinese hamster ovary) stably transfected cell line", "T2 sequence (Q12809 whole entry)": "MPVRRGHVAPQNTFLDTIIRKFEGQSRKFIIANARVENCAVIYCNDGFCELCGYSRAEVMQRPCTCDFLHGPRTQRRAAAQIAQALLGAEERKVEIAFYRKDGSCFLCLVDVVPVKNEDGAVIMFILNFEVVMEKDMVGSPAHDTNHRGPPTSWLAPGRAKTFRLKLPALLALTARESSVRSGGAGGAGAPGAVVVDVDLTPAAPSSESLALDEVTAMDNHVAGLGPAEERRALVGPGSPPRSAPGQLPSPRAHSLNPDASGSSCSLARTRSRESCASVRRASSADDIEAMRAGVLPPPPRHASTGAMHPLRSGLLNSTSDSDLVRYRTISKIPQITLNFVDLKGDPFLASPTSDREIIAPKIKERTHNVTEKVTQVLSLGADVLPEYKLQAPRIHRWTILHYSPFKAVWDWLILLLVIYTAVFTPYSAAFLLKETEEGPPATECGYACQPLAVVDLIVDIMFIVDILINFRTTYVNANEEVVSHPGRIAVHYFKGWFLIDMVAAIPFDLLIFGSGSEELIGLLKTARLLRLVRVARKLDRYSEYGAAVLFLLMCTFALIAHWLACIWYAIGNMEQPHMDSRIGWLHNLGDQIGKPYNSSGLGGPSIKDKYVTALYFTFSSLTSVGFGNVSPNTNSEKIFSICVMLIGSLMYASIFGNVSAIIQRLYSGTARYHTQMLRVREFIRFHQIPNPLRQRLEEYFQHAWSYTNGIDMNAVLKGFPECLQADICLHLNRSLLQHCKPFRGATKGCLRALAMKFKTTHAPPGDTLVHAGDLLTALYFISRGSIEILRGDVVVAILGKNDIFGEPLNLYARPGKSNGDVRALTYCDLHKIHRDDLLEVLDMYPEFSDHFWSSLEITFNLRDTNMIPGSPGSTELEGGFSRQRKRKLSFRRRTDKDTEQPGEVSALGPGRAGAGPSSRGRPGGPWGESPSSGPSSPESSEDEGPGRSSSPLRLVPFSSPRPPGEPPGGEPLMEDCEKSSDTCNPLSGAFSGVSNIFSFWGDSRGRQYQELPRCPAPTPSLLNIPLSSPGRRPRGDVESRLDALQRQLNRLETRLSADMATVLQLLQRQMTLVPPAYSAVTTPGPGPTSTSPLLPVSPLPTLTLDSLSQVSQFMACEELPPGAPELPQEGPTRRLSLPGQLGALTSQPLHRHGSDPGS", "test": "hERG potassium channel inhibition assay (patch clamp, CHO hERG cells)", "assay_type": "cell-based", "details": "CHO cells overexpressing hERG potassium channel, whole cell patch clamp", "description": "The cell line used for the patch clamp assay was a 10th generation CHO cell overexpressing hERG potassium channel cDNA.\nCHO hERG cells were cultured in Petri dishes or flasks at 37° C. in a 5% CO2 incubator. Cells were dropped onto circular slides 24-48 hours prior to electrophysiological experiments and cultured in cell culture medium and used for experiments after the cells had been adhered.\nCompound powders are dissolved in the extracellular solution and are subjected to a routine 5 to 10 minute sonication and shaking to ensure complete dissolution of the compound.\nThe final concentrations of compounds used for electrophysiological assays were 5, 20 μM and the final concentration of DMSO was 0.1%.\nCell membrane currents were recorded using a HEKA EPC-10 USB patch-clamp amplifier (HEKA Elektronik, Germany).\n1) A coverslip with a large number of uniformly growing individual CHO hERG cells on its surface was taken. Place in a continuous recording cell on an inverted microscope, perfused with extracellular fluid (approximately 1 ml per minute) and recorded continuously, waiting for the current to stabilize. […]\n3) The extracellular solution containing the drug to be tested was then perfused and recorded until the inhibitory effect of the drug on the hERG current reached a steady state, at which point the peak tail current was the post-drug current value. […]"}}}
{"smiles": "CN1CCN(c2ccc(Nc3ncc4cnn(-c5cccc(N=S(C)(C)=O)n5)c4n3)cc2)CC1", "note": "[Compound 1]", "values": [{"measurement": "inhibition at 30 min, 10 µM", "setting": "[1]", "value": 4.38, "unit": "%"}, {"measurement": "inhibition at 5 µM", "setting": "[2]; 5 μM", "value": 5.07, "unit": "%"}, {"measurement": "inhibition at 20 µM", "setting": "[2]; 20 μM", "value": 15.1, "unit": "%"}]}
